Data reported in publication PMC9237828, “Chemically Tuning Resveratrol for the Effective Killing of Gram-Positive Pathogens” (Journal of Natural Products, 2022).
Values after ≈ are worked out from the molar mass of the structure shown. Where two headings read alike, the source gives them in different places.

How the values were obtained:
B. cereus ATCC10987 [1] = assay: microbe, parasite or virus in culture; assay type: cell-based, Bacillus cereus
B. cereus ATCC14579 = assay: microbe, parasite or virus in culture; assay type: cell-based, Bacillus cereus
E. faecalis LMG08222 = assay: microbe, parasite or virus in culture; assay type: cell-based, Enterococcus faecalis; conditions: for MIC: Enterococcus faecalis, LMG08222, 20 h, read-out: Minimal Inhibition Concentration (MIC) E. faecalis LMG08222
E. faecalis LMG16216 = assay: microbe, parasite or virus in culture; assay type: cell-based, Enterococcus faecalis; conditions: for MIC: Enterococcus faecalis, LMG16216, 20 h, read-out: Minimal Inhibition Concentration (MIC) E. faecalis LMG16216
E. faecalis V583 = assay: microbe, parasite or virus in culture; assay type: cell-based, Enterococcus faecalis; conditions: for MIC: Enterococcus faecalis, V583, 20 h, read-out: Minimal Inhibition Concentration (MIC) E. faecalis V583
E. faecium LMG11423 = assay: microbe, parasite or virus in culture; assay type: cell-based; conditions: for MIC: Enterococcus faecium, LMG11423, 20 h, read-out: Minimal Inhibition Concentration (MIC) E. faecium LMG11423
E. faecium LMG16003 = assay: microbe, parasite or virus in culture; assay type: cell-based; conditions: for MIC: Enterococcus faecium, LMG16003, 20 h, read-out: Minimal Inhibition Concentration (MIC) E. faecium LMG16003
S.aureus LMG8224 = assay: microbe, parasite or virus in culture; assay type: cell-based, Staphylococcus aureus
S.aureus LMG10147 = assay: microbe, parasite or virus in culture; assay type: cell-based, Staphylococcus aureus
S.aureus LMG15975 = assay: microbe, parasite or virus in culture; assay type: cell-based, Staphylococcus aureus
C. beijerinckii B504 = assay: MIC test, anaerobes; assay type: cell-based; conditions: for Minimal Inhibition Concentration (MIC) C. beijerinckii B504: Table 1, 128 to 2 μM, RCM medium, anaerobic, 24 h
Description: (§1) The resveratrol derivatives were serially diluted in cMHB (BD Difco) in 96-well microplates. Plates were then inoculated with the indicator bacteria at a final concentration of 5 × 10^5 CFU/mL and incubated at 37 °C for 20 h. In the case of the anaerobic bacteria (Clostridium and Clostridioides), the test was performed following the recommendation of CLSI for anaerobes[77] but using RCM medium instead of cMHB. The cultures were cultivated inside an anaerobic chamber at 37 °C for 24 h. All the tests were performed in triplicate.

C. ihumii AP5 = assay: MIC test, anaerobes; assay type: cell-based; conditions: 24 h; for MIC: read-out: Minimal Inhibition Concentration (MIC) C. ihumii AP5
Description: as §1

C. botulinum CECT551 = assay: microbe, parasite or virus in culture; assay type: cell-based; conditions: for Minimal Inhibition Concentration (MIC) C. botulinum CECT551: Table 1, 128 to 2 μM, RCM medium, anaerobic, 24 h
C. difficile CECT531 = assay: microbe, parasite or virus in culture; assay type: cell-based, Clostridioides difficile
C. perfringens CECT376 = assay: microbe, parasite or virus in culture; assay type: cell-based
C. tetani CECT4629 = assay: microbe, parasite or virus in culture; assay type: cell-based; conditions: Table 1; 128 to 2 μM, RCM medium, anaerobic, 24 h
B. cereus ATCC10987 [2] = assay: Intracellular ATP level quantification (BacTiter-Glo); conditions: 32 μM of the compounds (100 μM for CCCP), 30, 60, and 120 min, 37 °C
[3] = tested on: panel of aerobic and anaerobic Gram-positive bacteria; assay: organism not typed; assay type: cell-based
E. coli LMG8224 = assay: Outer membrane permeabilization test (MIC with or without L-11 peptide)
[4] = Table 1, 128 to 2 μM, RCM medium, anaerobic

For 3-butyl resveratrol [compound 9], the “Minimal Inhibition Concentration (MIC) B. cereus ATCC10987” value (B. cereus ATCC10987 [1]) was 32 ± 0 µM, the “Minimal Inhibition Concentration (MIC) B. cereus ATCC14579” value (B. cereus ATCC14579) was 32 ± 0 µM and the “Minimal Inhibition Concentration (MIC) E. faecalis LMG08222” value (E. faecalis LMG08222) was 128 ± 0 µM. For the same compound, the “Minimal Inhibition Concentration (MIC) E. faecalis LMG16216” value (E. faecalis LMG16216) was 128 ± 0 µM, the “Minimal Inhibition Concentration (MIC) E. faecalis V583” value (E. faecalis V583) was 128 ± 0 µM and the “Minimal Inhibition Concentration (MIC) E. faecium LMG11423” value (E. faecium LMG11423) was 64 ± 0 µM. The “Minimal Inhibition Concentration (MIC) E. faecium LMG16003” value (E. faecium LMG16003) was 128 ± 0 µM, the “Minimal Inhibition Concentration (MIC) S.aureus LMG8224” value (S.aureus LMG8224) was 64 ± 0 µM and the “Minimal Inhibition Concentration (MIC) S.aureus LMG10147” value (S.aureus LMG10147) was 64 ± 0 µM. The “Minimal Inhibition Concentration (MIC) S.aureus LMG15975” value (S.aureus LMG15975) was 32 ± 0 µM, the “Minimal Inhibition Concentration (MIC) C. beijerinckii B504” value (C. beijerinckii B504) was 26.6 ± 5.3 µM and the “Minimal Inhibition Concentration (MIC) C. ihumii AP5” value (C. ihumii AP5; [4]) was 64 ± 0 µM. For the same compound, the “Minimal Inhibition Concentration (MIC) C. botulinum CECT551” value (C. botulinum CECT551) was 32 ± 0 µM, the “Minimal Inhibition Concentration (MIC) C. difficile CECT531” value (C. difficile CECT531) was 64 ± 0 µM and the “Minimal Inhibition Concentration (MIC) C. perfringens CECT376” value (C. perfringens CECT376) was 64 ± 0 µM. The “Minimal Inhibition Concentration (MIC) C. tetani CECT4629” value (C. tetani CECT4629) was 16 ± 0 µM.

In the case of “3-tert-Butyldimethylsilyl resveratrol [compound 16]”, the “Minimal Inhibition Concentration (MIC) B. cereus ATCC10987” value (B. cereus ATCC10987 [1]) is reported as 16 ± 0 µM, the “Minimal Inhibition Concentration (MIC) B. cereus ATCC14579” value (B. cereus ATCC14579) is reported as 16 ± 0 µM and the “Minimal Inhibition Concentration (MIC) E. faecalis LMG08222” value (E. faecalis LMG08222) is reported as 8 ± 0 µM. For the same compound, the “Minimal Inhibition Concentration (MIC) E. faecalis LMG16216” value (E. faecalis LMG16216) was 16 ± 0 µM, the “Minimal Inhibition Concentration (MIC) E. faecalis V583” value (E. faecalis V583) was 16 ± 0 µM and the “Minimal Inhibition Concentration (MIC) E. faecium LMG11423” value (E. faecium LMG11423) was 16 ± 0 µM. The “Minimal Inhibition Concentration (MIC) E. faecium LMG16003” value (E. faecium LMG16003) was 16 ± 0 µM, the “Minimal Inhibition Concentration (MIC) S.aureus LMG8224” value (S.aureus LMG8224) was 16 ± 0 µM and the “Minimal Inhibition Concentration (MIC) S.aureus LMG10147” value (S.aureus LMG10147) was 16 ± 0 µM. The “Minimal Inhibition Concentration (MIC) S.aureus LMG15975” value (S.aureus LMG15975) was 16 ± 0 µM, the “Minimal Inhibition Concentration (MIC) C. beijerinckii B504” value (C. beijerinckii B504) was 26.6 ± 5.3 µM and the MIC (C. ihumii AP5; [4]) was 32 µM. The “Minimal Inhibition Concentration (MIC) C. botulinum CECT551” value (C. botulinum CECT551) was 16 µM, the “Minimal Inhibition Concentration (MIC) C. difficile CECT531” value (C. difficile CECT531) was 26.6 ± 5.3 µM and the “Minimal Inhibition Concentration (MIC) C. perfringens CECT376” value (C. perfringens CECT376) was 32 µM. The “Minimal Inhibition Concentration (MIC) C. tetani CECT4629” value (C. tetani CECT4629) was 6.6 ± 1.3 µM and the IC50 (MRC5 cells) was 2.7 ± 0.3 µM.

In the case of “3-triethylsilyl resveratrol [compound 20]”, the IC50 (MRC5 cells) is reported as 21.3 ± 5.9 µM.

With `N#CC(C#N)=NNc1cccc(Cl)c1` [CCCP, carbonyl cyanide m-chlorophenyl hydrazone] the “intracellular ATP levels” value (B. cereus ATCC10987 [2]) was “a time reduction of these levels was observed”.

Compound `CCCCCCCCCCCC(=O)OC[C@H]1O[C@@H](Oc2cc(O)cc(/C=C/c3ccc(O)cc3)c2)[C@H](O)[C@@H](O)[C@@H]1O` [compound 4] has an MIC (B. cereus ATCC10987 [1]; Bacillus cereus, ATCC10987, 20 h, read-out: Minimal Inhibition Concentration (MIC) B. cereus ATCC10987) of 8 µM (≈ 4.58 µg/mL), an MIC (B. cereus ATCC14579; Bacillus cereus, ATCC14579, 20 h, read-out: Minimal Inhibition Concentration (MIC) B. cereus ATCC14579) of 8 µM (≈ 4.58 µg/mL) and an MIC (E. faecalis LMG08222) of 32 µM (≈ 18.3 µg/mL). It also gave an MIC (E. faecalis LMG16216) of 64 µM (≈ 36.7 µg/mL), an MIC (E. faecalis V583) of 53.3 ± 10.6 µM (≈ 30.5 µg/mL) and an MIC (E. faecium LMG11423) of 53.3 ± 10.6 µM (≈ 30.5 µg/mL). The MIC (E. faecium LMG16003) was 53.3 ± 10.6 µM (≈ 30.5 µg/mL), the MIC (S.aureus LMG8224; Staphylococcus aureus, LMG8224, 20 h, read-out: Minimal Inhibition Concentration (MIC) S.aureus LMG8224) was 16 µM (≈ 9.16 µg/mL) and the MIC (S.aureus LMG10147; Staphylococcus aureus, LMG10147, 20 h, read-out: Minimal Inhibition Concentration (MIC) S.aureus LMG10147) was 16 µM (≈ 9.16 µg/mL). The MIC (S.aureus LMG15975; Staphylococcus aureus, LMG15975, 20 h, read-out: Minimal Inhibition Concentration (MIC) S.aureus LMG15975) was 16 µM (≈ 9.16 µg/mL), the MIC (C. beijerinckii B504; Clostridium beijerinckii, B504, 24 h, read-out: Minimal Inhibition Concentration (MIC) C. beijerinckii B504) was 16 µM (≈ 9.16 µg/mL) and the MIC (C. ihumii AP5) was 32 µM (≈ 18.3 µg/mL). For the same compound, the MIC (C. botulinum CECT551; Clostridium botulinum, CECT551, 24 h, read-out: Minimal Inhibition Concentration (MIC) C. botulinum CECT551) was 8 µM (≈ 4.58 µg/mL), the MIC (C. difficile CECT531; Clostridioides difficile, CECT531, 24 h, read-out: Minimal Inhibition Concentration (MIC) C. difficile CECT531) was 128 µM (≈ 73.3 µg/mL) and the MIC (C. perfringens CECT376; Clostridium perfringens, CECT376, 24 h, read-out: Minimal Inhibition Concentration (MIC) C. perfringens CECT376) was 32 µM (≈ 18.3 µg/mL). For the same compound, the MIC [3] was 8 to 16 µM (≈ 4.58 to 9.16 µg/mL), the MIC (E. coli LMG8224; Escherichia coli, LMG8224, read-out: MIC (μM) L-11 + 0 μM) was > 128 µM and the “MIC (μM) L-11 + 4 μM” value (E. coli LMG8224; presence of 4 μM L-11 outer-membrane-perturbing peptide) was 6.6 ± 1.3 µM.

`CCCCCCCCCCCCCCCCCC(=O)OC[C@H]1O[C@@H](Oc2cc(O)cc(/C=C/c3ccc(O)cc3)c2)[C@H](O)[C@@H](O)[C@@H]1O` [compound 6, piceid stearate] showed an MIC (E. faecalis LMG08222) of 16 µM (≈ 10.5 µg/mL), an MIC (E. faecalis LMG16216) of 128 µM (≈ 84.1 µg/mL) and an MIC (E. faecalis V583) of 128 µM (≈ 84.1 µg/mL). For the same compound, the MIC (E. faecium LMG11423) was 1 µM (≈ 0.657 µg/mL) and the MIC (E. faecium LMG16003) was 2.6 ± 0.6 µM (≈ 1.71 µg/mL).
